From the SangsterLogP compilation come the findings set out here.

This data set can be described thus: method code SF-TN, from DOI: 10.1021/jm00251a007, PMID: 4151492.

Take `CC(C)NCC(O)COc1ccc2ccccc2c1OCC(O)CNC(C)C` (stereo unspecified): the logP (usually a log measure of how a compound divides between an organic and an aqueous phase) stood at 1.07.

`CC(C)NCC(O)COc1cccc2cccc(OCC(O)CNC(C)C)c12` (stereo unspecified) came in with a logP of 1.37. Compound `CC(C)NCC(O)COc1ccc(OCC(O)CNC(C)C)c2ccccc12` (stereo unspecified) came in with a logP of 0.93. For `CC(C)NCC(O)COc1ccccc1` (stereo unspecified) the value was 1.76; for `CC(C)NCC(O)COc1ccccc1-c1ccccc1OCC(O)CNC(C)C` (stereo unspecified), 0.97. Under `CC(C)NCC(O)COc1ccc2c(OCC(O)CNC(C)C)cccc2c1` (stereo unspecified) stands 0.87. `CC(C)NCC(O)COc1ccc(OCC(O)CNC(C)C)cc1` (stereo unspecified) had a logP of 0.67.

Compound `CC(C)NCC(O)COc1ccccc1OCC(O)CNC(C)C` (stereo unspecified) registered a logP of 0.63. Under `CC(C)NCC(O)COc1cccc2c(OCC(O)CNC(C)C)cccc12` (stereo unspecified) stands 0.98; under `CC(C)NCC(O)COc1cccc(OCC(O)CNC(C)C)c1` (stereo unspecified), 0.73; under `CC(C)NCC(O)COc1cc(OCC(O)CNC(C)C)c2ccccc2c1` (stereo unspecified), 0.99.
